According to ChEMBL document CHEMBL1142070, “Antimicrobial susceptibility and synergy studies of Burkholderia cepacia complex isolated from patients with cystic fibrosis” (2007):
Values after ≈ are worked out from the molar mass of the structure shown.

Columns and labels:
Format in all cases: functional
Burkholderia cepacia [1] = experiment: Antimicrobial susceptibility of Burkholderia cepacia complex isolated from cystic fibrosis patient assessed as percent susceptible isolates
Burkholderia cepacia [2] = experiment: Antimicrobial susceptibility of Burkholderia cepacia complex isolated from cystic fibrosis patient assessed as percent resistant isolates
Burkholderia cepacia [3] = experiment: Antimicrobial activity against Burkholderia cepacia complex isolated from cystic fibrosis patient by broth microdilution assay

SMILES	Activity (Burkholderia cepacia [1]) [%]	Activity (Burkholderia cepacia [2]) [%]	MIC50 (Burkholderia cepacia [3]) [µg/mL]	MIC90 (Burkholderia cepacia [3]) [µg/mL]
NCC[C@H](O)C(=O)N[C@@H]1C[C@H](N)[C@@H](O[C@H]2O[C@H](CN)[C@@H](O)[C@H](O)[C@H]2O)[C@H](O)[C@H]1O[C@H]1O[C@H](CO)[C@@H](O)[C@H](N)[C@H]1O [AMIKACIN]	4	–	–	–
C[C@H]1[C@H](NC(=O)/C(=N\OC(C)(C)C(=O)O)c2csc(N)n2)C(=O)N1S(=O)(=O)O [AZTREONAM]	2	–	–	–
CO/N=C(\C(=O)N[C@@H]1C(=O)N2C(C(=O)[O-])=C(C[N+]3(C)CCCC3)CS[C@H]12)c1csc(N)n1 [CEFEPIME]	8	–	–	–
CC(C)(O/N=C(\C(=O)N[C@@H]1C(=O)N2C(C(=O)[O-])=C(C[n+]3ccccc3)CS[C@H]12)c1csc(N)n1)C(=O)O [CEFTAZIDIME]	23	65	32 (≈ 58.5 µM)	128 (≈ 234 µM)
O=C(N[C@H](CO)[C@H](O)c1ccc([N+](=O)[O-])cc1)C(Cl)Cl [CHLORAMPHENICOL]	5	85	64 (≈ 198 µM)	> 64
O=C(O)c1cn(C2CC2)c2cc(N3CCNCC3)c(F)cc2c1=O [CIPROFLOXACIN]	5	–	–	–
C[C@H]1c2cccc(O)c2C(=O)C2=C(O)[C@]3(O)C(=O)C(C(N)=O)=C(O)[C@@H](N(C)C)[C@@H]3[C@@H](O)[C@@H]21.O [DOXYCYCLINE]	22	61	16	> 32
C[C@@H](O)[C@H]1C(=O)N2C(C(=O)O)=C(SCCNC=N)C[C@H]12 [IMIPENEM ANHYDROUS]	7	–	–	–
C[C@@H](O)[C@H]1C(=O)N2C(C(=O)O)=C(S[C@@H]3CN[C@H](C(=O)N(C)C)C3)[C@H](C)[C@H]12 [MEROPENEM]	26	48	8 (≈ 20.9 µM)	32 (≈ 83.4 µM)
CN(C)c1ccc(O)c2c1C[C@H]1C[C@H]3[C@H](N(C)C)C(O)=C(C(N)=O)C(=O)[C@@]3(O)C(O)=C1C2=O [MINOCYCLINE]	38	37	8 (≈ 17.5 µM)	32 (≈ 69.9 µM)
CCN1CCN(C(=O)N[C@@H](C(=O)N[C@@H]2C(=O)N3[C@@H]2SC(C)(C)[C@@H]3C(=O)O)c2ccccc2)C(=O)C1=O [PIPERACILLIN]	11	80	256 (≈ 495 µM)	> 256
CO[C@H]1/C=C/O[C@@]2(C)Oc3c(C)c(O)c4c(O)c(c(/C=N/N5CCN(C)CC5)c(O)c4c3C2=O)NC(=O)/C(C)=C\C=C\[C@H](C)[C@H](O)[C@@H](C)[C@@H](O)[C@@H](C)[C@H](OC(C)=O)[C@@H]1C [RIFAMPIN]	1	–	–	–
CC1(C)S[C@@H]2[C@H](NC(=O)[C@H](C(=O)O)c3ccsc3)C(=O)N2[C@H]1C(=O)O [TICARCILLIN]	2	–	–	–
